Assay results reported in patent publication US20250034182A1, “PHOSPHOLIPID COMPOUNDS AND METHODS OF MAKING AND USING THE SAME” (priority 2021, published 2025).

How the values were obtained:
Format in all cases: cell-based
[1] = HCV Replicon 1B CC50, calcein AM (Example Q); conditions: HCV replicon cells (1B), calcein AM fluorescence, read-out: HCV Replicon 1B CC50 (nM) (per Ex. Q)
Description: (§1) Compounds were serially diluted in ten steps of 1:3 dilutions in 384-well plates. All serial dilutions were performed in four replicates per compound within the same 384-well plate. An HCV protease inhibitor ITMN-191 at […] was added as a control of 100% inhibition of HCV replication while puromycin at 10 mM was included as a control of 100% cytotoxicity. To each well of a black polystyrene 384-well plate (Greiner Bio-one, Monroe, NC), 90 μL of cell culture medium (without Geneticin) containing 2000 suspended HCV replicon cells was added with a Biotek μFlow workstation. For compound transfer into cell culture plates, 0.4 μL of compound solution from the compound serial dilution plate was transferred to the cell culture plate on a Biomek FX workstation. The DMSO concentration in the final assay wells was 0.44%. The plates were incubated for 3 days at 37° C. with 5% CO2 and 85% humidity. The HCV replicon assay was a multiplex assay, able to assess both cytotoxicity and antireplicon activity from the same well. The CC50 assay was performed first. The media in the 384-well cell culture plate was aspirated, and the wells were washed four times with 100 μL of PBS each, using a Biotek ELX405 plate washer. A volume of 50 μL of a solution containing 400 nM calcein AM (Anaspec, Fremont, CA) in 1×PBS was added to each well of the plate with a Biotek μFlow workstation. The plate was incubated for 30 min at room temperature before the fluorescence signal (excitation 490 nm, emission 520 nm) was measured with a Perkin-Elmer Envision plate reader. The EC50 assay was performed in the same wells as the CC50 assay. The calcein-PBS solution in the 384-well cell culture plate was aspirated with a Biotek ELX405 plate washer. A volume of 20 μL of Dual-Glo luciferase buffer (Promega, Madison, WI) was added to each well of the plate with a Biotek μFlow Workstation. The plate was incubated for 10 min at room temperature. A volume of 20 μL of a solution containing a 1:100 mixture of Dual-Glo Stop & Glo substrate (Promega, Madison, WI) and Dual-Glo Stop & Glo buffer (Promega, Madison, WI) was added to each well of the plate with a Biotek μFlow Workstation. The plate was then incubated at room temperature for 10 min before the luminescence signal was measured with a Perkin-Elmer Envision Plate Reader.

HCV Replicon 1B = HCV Replicon 1B EC50 (Example Q); conditions: Hepatitis C virus, 72 h; HCV replicon cells, 3 days, Dual-Glo luciferase; read-out: HCV Replicon 1B EC50 (nM) (per Ex. Q)
Description: as §1

[2] = test system: CAN97-83-GFP1 (A2a) hMPV in H1-HeLa cells; assay: hMPV H1-Hela EC50, anti-nucleoprotein ELISA (Example X); conditions: human metapneumovirus, 96 h, read-out: hMPV H1-Hela EC50 (nM) (per Ex. X)
Description: The human metapneumoavirus (hMPV) anti-viral assay is an anti-nucleoprotein ELISA performed in infected H1-HeLa cells. H1-HeLa cells were maintained in Dulbecco's Modified Eagle's Medium with high glucose (Gibco, Cat #: 11995073) supplemented with 10% FBS (HyClone, Cat #: SH303396.03), 100 units/mL penicillin and 100 μg/mL streptomycin (Gibco, Cat #: 15140122). One day before infection, H1-HeLa cells were seeded into 96-well plates (Corning, Cat. #: 3903) at 0.1 mL/well at 1.5×10^5 cells/mL in Opti-MEM (Gibco, Cat #: 31985070) supplemented with 2% FBS, and were incubated at 37° C. in a 100% humid atmosphere containing 5% (v/v) CO2 overnight. On the next day, CAN97-83-GFP1 (A2a) hMPV was diluted in Opti-MEM medium containing 200 μg/mL CaCl2) and 2 μg/mL TPCK treated trypsin and distributed to the 96-well plates at 0.1 mL/well for an MOI=0.1. Test compounds were distributed to each well using a HP D300e digital dispenser with a final volume of 200 µL/well. After the plates were centrifuged at 700 g for one hour at room temperature, they were maintained in a humidified chamber at 37-C with 5% (v/v) CO2 for 96 hours. After the incubation, the medium was removed, and the plates were fixed with 0.1 mL/well 1% formaldehyde for 15 min at room temperature. The fixative was removed, the plates were air dried for 30-60 minutes, and then permeabilized with 0.1 mL/well 0.5% Triton X-100 in PBS for five minutes at room temperature. Following permeabilization, the plates were washed once with 0.1 mL/well blocking buffer consisting of 10% FBS (HyClone, Cat #: SH303396.03), 5% dry milk (AmericanBio, Cat #: AB10109-01000), and 0.1% Tween 20 (EMD Millipore, Cat #655204) in PBS. The plates were blocked with 0.1 mL/well blocking buffer for 60 minutes at 37° C. afterward. The blocking buffer was removed and 0.05 mL/well human metapneumovirus nucleocapsid antibody (Sigma, Cat #MAB80121) diluted 1:500 in Blocking buffer was added and incubated for two hours at 37-C. The plates were then washed with 0.2 mL/well 0.1% Tween 20/PBS five times, followed by addition of 0.05 mL/well of horseradish peroxidase (HRP) conjugated goat anti-mouse IgG antibody (Fisher Scientific, Cat #501077607) at 1:2000 dilution in the blocking buffer. After one-hour incubation at 37-C, plates were washed five times with 0.2 mL/well 0.1% tween 20 in PBS. The HRP signals were developed by adding 0.1 mL/well of TMB reagent (Thermo Scientific, Cat #: ENN301) and incubating at room until the positive control was apparent. At that point, the reaction was stopped by adding 0.1 mL/well TMB stop solution (SeraCare, Cat #: 5150-0021). The absorbance was measured at 450 nm with an EnVision plate reader. The relative absorbance was calculated by normalizing the absorbance of the compound-treated groups to that of the DMSO-treated groups (set as 100%). EC50 values were calculated using a nonlinear four parameter variable slope regression model.

Structure (SMILES) | CC50 at 3 days [1] [nM] | EC50 (HCV Replicon 1B) [nM] | EC50 [2] [nM]
CCCCCCCCCCCCCCCCCCOC[C@H](COP(=O)(O)OC[C@@]1(C#N)O[C@@H](c2ccc3c(N)ncnn23)[C@H](O)[C@@H]1O)Oc1cccc(C#N)n1 [Compound 21, ((2R,3S,4R,5S)-5-(4-aminopyrrolo[2,1-f][1,2,4]triazin-7-yl)-2-cyano-3,4-dihydroxytetrahydrofuran-2-yl)methyl ((R)-2-((6-cyanopyridin-2-yl)oxy)-3-(octadecyloxy)propyl) hydrogen phosphate] | > 44400 | 13300 | –
CCCCCCCCCCCCCCCCCCOC[C@H](COP(=O)(O)OC[C@@]1(C#N)O[C@@H](c2ccc3c(N)ncnn23)[C@H](O)[C@@H]1O)Oc1ccc(C#N)c(OC(C)C)c1 [Compound 23, ((2R,3S,4R,5S)-5-(4-aminopyrrolo[2,1-f][1,2,4]triazin-7-yl)-2-cyano-3,4-dihydroxytetrahydrofuran-2-yl)methyl ((R)-2-(4-cyano-3-isopropoxyphenoxy)-3-(octadecyloxy)propyl) hydrogen phosphate] | – | – | 156
CCCCCCCCCCCCCCCCCCC[C@H](COP(=O)(O)OC[C@@]1(C#N)O[C@@H](c2ccc3c(N)ncnn23)[C@H](O)[C@@H]1O)OCc1cc(F)cc(C#N)c1 [Compound 25, ((2R,3S,4R,5S)-5-(4-aminopyrrolo[2,1-f][1,2,4]triazin-7-yl)-2-cyano-3,4-dihydroxytetrahydrofuran-2-yl)methyl ((R)-2-((3-cyano-5-fluorobenzyl)oxy)henicosyl) hydrogen phosphate] | – | – | 1280
CCCCCCCCCCCCCCCCCCC[C@H](COP(=O)(O)OC[C@@]1(C#N)O[C@@H](c2ccc3c(N)ncnn23)[C@H](O)[C@@H]1O)OCc1ccc(C#N)c(OC(C)C)c1 [Compound 28, ((2R,3S,4R,5S)-5-(4-aminopyrrolo[2,1-f][1,2,4]triazin-7-yl)-2-cyano-3,4-dihydroxytetrahydrofuran-2-yl)methyl ((R)-2-((4-cyano-3-isopropoxybenzyl)oxy)henicosyl) hydrogen phosphate] | – | – | 625
CCCCCCCCCCCCCCCCCCCC[C@H](COP(=O)(O)OC[C@@]1(C#N)O[C@@H](c2ccc3c(N)ncnn23)[C@H](O)[C@@H]1O)OCc1cc(F)cc(C#N)c1 [Compound 34, ((2R,3S,4R)-5-(4-aminopyrrolo[2,1-f][1,2,4]triazin-7-yl)-2-cyano-3,4-dihydroxytetrahydrofuran-2-yl)methyl ((R)-2-((3-cyano-5-fluorobenzyl)oxy)docosyl) hydrogen phosphate] | – | – | 646
CCCCCCCCCCCCCCCCCC[C@@H](COP(=O)(O)OC[C@@]1(C#N)O[C@@H](c2ccc3c(N)ncnn23)[C@H](O)[C@@H]1O)OCc1cc(F)cc(C#N)c1 [Compound 37, ((2R,3S,4R)-5-(4-aminopyrrolo[2,1-f][1,2,4]triazin-7-yl)-2-cyano-3,4-dihydroxytetrahydrofuran-2-yl)methyl ((S)-2-((3-cyano-5-fluorobenzyl)oxy)icosyl) hydrogen phosphate] | > 44400 | 22500 | –
CCCCCCCCCCCCCCCCCCC[C@H](COP(=O)(O)OC[C@@]1(C#N)O[C@@H](c2ccc3c(N)ncnn23)[C@H](O)[C@@H]1O)Oc1ccc(C#N)c(OC(C)C)c1 [Compound 38, ((2R,3S,4R,5S)-5-(4-aminopyrrolo[2,1-f][1,2,4]triazin-7-yl)-2-cyano-3,4-dihydroxytetrahydrofuran-2-yl)methyl ((R)-2-(4-cyano-3-isopropoxyphenoxy)henicosyl) hydrogen phosphate] | – | – | 137
CCCCCCCCCCCCCCCCCCOCC(COc1cc(F)cc(C#N)c1)COP(=O)(O)OC[C@@]1(C#N)O[C@@H](c2ccc3c(N)ncnn23)[C@H](O)[C@@H]1O (stereo partly drawn) [Compound 43, ((2R,3S,4R,5S)-5-(4-aminopyrrolo[2,1-f][1,2,4]triazin-7-yl)-2-cyano-3,4-dihydroxytetrahydrofuran-2-yl)methyl (3-(3-cyano-5-fluorophenoxy)-2-((octadecyloxy)methyl)propyl) hydrogen phosphate] | – | – | 901
CCCCCCCCCCCCCCCCCCCC[C@H](COP(=O)(O)OC[C@@]1(C#N)O[C@@H](c2ccc3c(N)ncnn23)[C@H](O)[C@@H]1O)Oc1cccc(C#N)c1 [Compound 51, ((2R,3S,4R,5S)-5-(4-aminopyrrolo[2,1-f][1,2,4]triazin-7-yl)-2-cyano-3,4-dihydroxytetrahydrofuran-2-yl)methyl ((R)-2-(3-cyanophenoxy)docosyl) hydrogen phosphate] | > 44400 | 14600 | –
CCCCCCCCCCCCCCCCC[C@H](COP(=O)(O)OC[C@@]1(C#N)O[C@@H](c2ccc3c(N)ncnn23)[C@H](O)[C@@H]1O)OCc1cc(Cl)cc(C#N)c1 [Compound 76, ((2R,3S,4R)-5-(4-aminopyrrolo[2,1-f][1,2,4]triazin-7-yl)-2-cyano-3,4-dihydroxytetrahydrofuran-2-yl)methyl ((R)-2-((3-chloro-5-cyanobenzyl)oxy)nonadecyl) hydrogen phosphate] | – | – | 517
CCCCCCCCCCCCCCCCCC[C@H](COP(=O)(O)OC[C@@]1(C#N)O[C@@H](c2ccc3c(N)ncnn23)[C@H](O)[C@@H]1O)OCc1cc(F)cc(C#N)c1 [Compound 84, ((2R,3S,4R,5S)-5-(4-aminopyrrolo[2,1-f][1,2,4]triazin-7-yl)-2-cyano-3,4-dihydroxytetrahydrofuran-2-yl)methyl ((R)-2-((3-cyano-5-fluorobenzyl)oxy)icosyl) hydrogen phosphate] | – | – | 367
CCCCCCCCCCCCCCCCOC[C@@H](COP(=O)(O)OC[C@@]1(C#N)O[C@@H](c2ccc3c(N)ncnn23)[C@H](O)[C@@H]1O)OCc1cc(F)cc(C#N)c1 [Compound 88, ((2R,3S,4R,5S)-5-(4-aminopyrrolo[2,1-f][1,2,4]triazin-7-yl)-2-cyano-3,4-dihydroxytetrahydrofuran-2-yl)methyl ((S)-2-((3-cyano-5-fluorobenzyl)oxy)-3-(hexadecyloxy)propyl) hydrogen phosphate] | – | – | 348
